Values after ≈ are worked out from the molar mass of the structure shown.
How the values were obtained:
Type in all cases: functional
Saccharomyces cerevisiae = assay: Antifungal activity against Saccharomyces cerevisiae after 16 hrs
Escherichia coli = assay: Antibacterial activity against Escherichia coli after 16 hrs
Bacillus subtilis = assay: Antibacterial activity against Bacillus subtilis after 16 hrs

| Structure (SMILES) | MIC (Saccharomyces cerevisiae) | MIC (Escherichia coli) | MIC (Bacillus subtilis) |
| --- | --- | --- | --- |
| CC1=CC=C(C=O)C(c2ccc(N(C)C)cc2)C1 (stereo unspecified) | > 100 µg/mL | > 100 µg/mL | > 100 µg/mL |
| CN(C)c1ccc(C2CC(c3ccc4c(c3)Cc3ccccc3-4)=CC=C2C=O)cc1 (stereo unspecified) | > 100 µg/mL | > 100 µg/mL | > 100 µg/mL |
| CC1(c2ccc(Cl)s2)CC(c2ccc(Cl)s2)=CC=C1C=O (stereo unspecified) | > 100 µg/mL | > 100 µg/mL | > 100 µg/mL |
| CC1CC(c2cccs2)=CC=C1C=O (stereo unspecified) | > 100 µg/mL | > 100 µg/mL | > 100 µg/mL |
| Cc1ccc(C2=CC=C(C=O)C(C)(c3ccc(C)o3)C2)o1 (stereo unspecified) | > 100 µg/mL | > 100 µg/mL | > 100 µg/mL |
| CN(C)c1ccc(C2CC(c3ccccc3)=CC=C2C=O)cc1 (stereo unspecified) | > 100 µg/mL | > 100 µg/mL | > 100 µg/mL |
| O=CC1=CC=C(c2ccc(-c3ccccc3)cc2)CC1c1ccccc1 (stereo unspecified) | > 100 µg/mL | > 100 µg/mL | > 100 µg/mL |
| CCCCC[C@H]1C(C)=CC=C(C=O)[C@H]1c1ccccc1 | > 100 µg/mL | > 100 µg/mL | > 100 µg/mL |
| O=CC1=CC=C(c2cccs2)CC1c1ccccc1 (stereo unspecified) | > 100 µg/mL | > 100 µg/mL | > 100 µg/mL |
| CC1(c2ccc3c(c2)Cc2ccccc2-3)CC(c2ccc3c(c2)Cc2ccccc2-3)=CC=C1C=O (stereo unspecified) | > 100 µg/mL | > 100 µg/mL | > 100 µg/mL |
| CC1=C(/C=C/C2=CC=C(C=O)C(c3ccccc3)C2)C(C)(C)CCC1 (stereo unspecified) | > 100 µg/mL | > 100 µg/mL | > 100 µg/mL |
| O=CC1=CC=C(c2cccs2)CC1c1ccc([N+](=O)[O-])cc1 (stereo unspecified) | > 100 µg/mL | > 100 µg/mL | > 100 µg/mL |
| CC(C)=CC[C@@H]1C(C)=CC=C(C=O)[C@H]1c1ccc(N(C)C)cc1 | > 100 µg/mL | > 100 µg/mL | > 100 µg/mL |
| CC1CC(c2ccc3c(c2)Cc2ccccc2-3)=CC=C1C=O (stereo unspecified) | > 100 µg/mL | > 100 µg/mL | > 100 µg/mL |
| CC1CC(c2ccc(-c3ccccc3)cc2)=CC=C1C=O (stereo unspecified) | > 100 µg/mL | > 100 µg/mL | > 100 µg/mL |
| CC(C)=CC[C@H]1C(C)=CC=C(C=O)[C@H]1c1ccccc1 | > 100 µg/mL | > 100 µg/mL | > 100 µg/mL |
| CC(C)=CCCc1ccc(C=O)c(-c2ccc([N+](=O)[O-])cc2)c1 | > 100 µg/mL | > 100 µg/mL | > 100 µg/mL |
| CC(C)=CC[C@H]1C(C)=CC=C(C=O)[C@H]1c1ccc(N(C)C)cc1 | > 100 µg/mL | > 100 µg/mL | > 100 µg/mL |
| CC1=CC=C(C=O)C(C)(c2ccc(-c3ccccc3)cc2)C1 (stereo unspecified) | > 100 µg/mL | > 100 µg/mL | > 100 µg/mL |

| Structure (SMILES) | MIC (Saccharomyces cerevisiae) | MIC (Escherichia coli) | MIC (Bacillus subtilis) |
| --- | --- | --- | --- |
| CC1=C(/C=C/C2=CC=C(C=O)C(c3ccc([N+](=O)[O-])cc3)C2)C(C)(C)CCC1 (stereo unspecified) | > 100 µg/mL | > 100 µg/mL | > 100 µg/mL |
| CC(C)=CCCC1=CC=C(C=O)C(C)(c2ccc(C)o2)C1 (stereo unspecified) | > 100 µg/mL | > 100 µg/mL | > 100 µg/mL |
| CC1=CC=C(C=O)C(C)(C)C1 | > 100 µg/mL | > 100 µg/mL | > 100 µg/mL |
| CC1=CC=C(C=O)C(c2ccc([N+](=O)[O-])cc2)C1 (stereo unspecified) | > 100 µg/mL | > 100 µg/mL | > 100 µg/mL |
| CC1(c2cccs2)CC(c2ccc(-c3ccccc3)cc2)=CC=C1C=O (stereo unspecified) | > 100 µg/mL | > 100 µg/mL | 10 µg/mL (≈ 28.1 µM) |
| CC1=C(/C=C/C(C)=C/C=C/C2=CC=C(C=O)C(c3ccc([N+](=O)[O-])cc3)C2)C(C)(C)CCC1 (stereo unspecified) | > 100 µg/mL | > 100 µg/mL | > 100 µg/mL |
| CC1(c2ccccc2)CC(c2ccccc2)=CC=C1C=O (stereo unspecified) | > 100 µg/mL | > 100 µg/mL | > 100 µg/mL |
| CC1=C(/C=C/C2=CC=C(C=O)C(c3ccc(N(C)C)cc3)C2)C(C)(C)CCC1 (stereo unspecified) | > 100 µg/mL | > 100 µg/mL | > 100 µg/mL |
| CC1=C(/C=C/C(C)=C/C=C/C2=CC=C(C=O)C(c3ccc(N(C)C)cc3)C2)C(C)(C)CCC1 (stereo unspecified) | > 100 µg/mL | > 100 µg/mL | > 100 µg/mL |
| Cc1ccc(C=O)c(-c2ccc([N+](=O)[O-])cc2)c1 | > 100 µg/mL | > 100 µg/mL | > 100 µg/mL |
| CC(C)=CCCC1=CC=C(C=O)C(C)(CCC=C(C)C)C1 (stereo unspecified) | > 100 µg/mL | > 100 µg/mL | > 100 µg/mL |
| CC(C)=CCCc1ccc(C=O)c(-c2ccc(N(C)C)cc2)c1 | > 100 µg/mL | > 100 µg/mL | > 100 µg/mL |
| Cc1ccc(C2=CC=C(C=O)C(c3ccc([N+](=O)[O-])cc3)C2)o1 (stereo unspecified) | > 100 µg/mL | > 100 µg/mL | > 100 µg/mL |
| CCC1(c2cccs2)C(C=O)=CC=C(c2cccs2)C1C (stereo unspecified) | > 100 µg/mL | > 100 µg/mL | > 100 µg/mL |
| O=CC1=CC=C(c2ccccc2)CC1c1ccc([N+](=O)[O-])cc1 (stereo unspecified) | > 100 µg/mL | > 100 µg/mL | > 100 µg/mL |
| O=CC1=CC=C(c2ccc3ccccc3c2)CC1c1ccc([N+](=O)[O-])cc1 (stereo unspecified) | > 100 µg/mL | > 100 µg/mL | > 100 µg/mL |
| CC1(c2ccc3ccccc3c2)CC(c2ccc3ccccc3c2)=CC=C1C=O (stereo unspecified) | > 100 µg/mL | > 100 µg/mL | > 100 µg/mL |
| CC1C(c2cccs2)=CC=C(C=O)C1c1ccc(N(C)C)cc1 (stereo unspecified) | > 100 µg/mL | > 100 µg/mL | > 100 µg/mL |
